System: Enterococcus faecalis
Experiment: Antibacterial activity against Streptococcus faecalis by broth microdilution technique

IC50: 445 nM
Structure (SMILES): CNC(C)[C@@H]1CC[C@@H](N)[C@@H](O[C@H]2[C@H](O)[C@@H](O[C@H]3OC[C@](C)(O)[C@H](NC)[C@H]3O)[C@H](N)C[C@@H]2N)O1 (stereo partly specified) [Gentamicin]

— BindingDB's records for doi:10.1016/j.bmcl.2006.08.060 (Lucknow University, 2006)
